The text below walks through data of US20140200215A1, “LYSOPHOSPHATIDIC ACID RECEPTOR ANTAGONISTS” (INTERMUNE, INC., priority 2013, published 2014).

The EC50 is the concentration needed to bring the measured effect to its halfway point. For orientation: IC50 means the concentration at which inhibition is half-maximal.

The structures appear in SMILES notation.

Format in all cases: cell-based
The subject of assay [1] is primary fibroblasts (including lung, dermal), HFL-1, 3T3 and CHO cells expressing LPA1R. In words: LPA1 migration assay (Oris cell migration). As to conditions: inhibition of cell migration in response to chemoattractant (LPA, serum). From the text:
Migration of primary fibroblasts (including lung, dermal), HFL-1, 3T3 and CHO cells expressing LPA1R were monitored using the Oris™ assay (Platypus Technologies, Madison, Wis.). These cells were dye (Cell Tracker Green™) loaded and serum starved for 12-24 hrs. In response to chemoattractants such as LPA and serum, the cells migrated inward in to the exclusion (detection) zone. After fixing, fluorescent cells in the detection zone were counted using a high content reader. The ability of LPA1 antagonists to inhibit cell migration is quantified by plotting cell number vs. compound concentration and curve fitting the resulting dose-response curve to a 4 parameter logistic function.

Assay [2] deals with T1, Human LPA1 (Homo sapiens, UniProt Q92633). In words: Beta-Arrestin based assay for human LPA1R antagonists (PathHunter). The note with it: CHO cells expressing ProLink tagged human LPA1R; antagonist mode, 0.5 micromolar LPA. On the procedure: Beta-Arrestin Based Assays for Human LPA1R Antagonists and Agonists
A CHO cell line stably expressing the ProLink™ tagged human LPA1R was obtained from DiscoverX Inc, Fremont, Calif. In this system, β-Arrestin was fused to an N-terminal deletion mutant of β-galactosidase (termed the enzyme acceptor or EA), the human LPA1R was fused to a smaller (42 amino acids) weakly complementing fragment termed ProLink™. […] Cell handling and assays were performed according to protocols specified in the PathHunter® assays kits (DiscoverX, Fremont, Calif.). Assays were performed in quadruplicate in white 384 well plates. End point luminescence data were plotted and fit to a 4 parameter logistic function to obtain IC50 values. For antagonist assays, an […] concentration of agonist (LPA) equal to 0.5 micromolar was used.

Assay [3] concerns the target T1, Human LPA1. As to the kind of experiment: LPA1 calcium flux assay. Details: the full-length cDNA for human LPA1 is obtained by PCR of the reverse transcription reaction; expressed in transfected cells. As to conditions: human LPA1 expressing CHO cells, stimulated with 10 nM LPA; read-out: Ca Flux LPA1 IC50. As for the experimental part:
Establishment of a CHO Cell Line Stably Expressing Human LPA1
A 1.1 kb cDNA encoding the human LPA1 receptor is cloned from human lung. Human lung RNA (Clontech Laboratories, Inc. USA) is reverse transcribed using the RETROscript kit (Ambion, Inc.) and the full-length cDNA for human LPA1 is obtained by PCR of the reverse transcription reaction. The nucleotide sequence of the cloned human LPA1 is determined by sequencing and is confirmed to be identical to the published human LPA1 sequence (An et al. Biochem. Biophys. Res. Commun. 231:619 (1997). The cDNA is cloned into the pCDNA5 pcDNA5/FRT expression plasmid and is transfected in CHO cells using lipofectamine 2000 (Invitrogen Corp., USA). Clones stably expressing human LPA1 are selected using hygromycin and identified as cells that show Ca-influx in response to LPA.
LPA1 and LPA3 Calcium Flux Assays
Human LPA1 or LPA3 expressing CHO cells were seeded at 20,000-45,000 cells per well in a 96-well poly-D-lysine coated plate one or two days before the assay. Prior to the assay, the cells were washed once with PBS and then cultured in serum-free media overnight. On the day of the assay, a calcium indicator dye (Calcium 4, Molecular Devices) in assay buffer (HBSS with Ca^2+ and Mg^2+ and containing 20 mM Hepes and 0.3% fatty-acid free human serum albumin) was added to each well and incubation continued for 1 hour at 37° C. 10 μl of test compounds in 2.5% DMSO were added to the cells and incubation continued at room temperature for 30 minutes. Cells were then stimulated by the addition of 10 nM LPA and intracellular Ca^2+ measured using the Flexstation 3 (Molecular Devices). IC50, were determined using Graphpad prism analysis of drug titration curves.
Background: Calcium flux is commonly read through the fluorescence of an indicator in the cells.

T1 sequence (Q92633 whole entry, the tested form may be a part): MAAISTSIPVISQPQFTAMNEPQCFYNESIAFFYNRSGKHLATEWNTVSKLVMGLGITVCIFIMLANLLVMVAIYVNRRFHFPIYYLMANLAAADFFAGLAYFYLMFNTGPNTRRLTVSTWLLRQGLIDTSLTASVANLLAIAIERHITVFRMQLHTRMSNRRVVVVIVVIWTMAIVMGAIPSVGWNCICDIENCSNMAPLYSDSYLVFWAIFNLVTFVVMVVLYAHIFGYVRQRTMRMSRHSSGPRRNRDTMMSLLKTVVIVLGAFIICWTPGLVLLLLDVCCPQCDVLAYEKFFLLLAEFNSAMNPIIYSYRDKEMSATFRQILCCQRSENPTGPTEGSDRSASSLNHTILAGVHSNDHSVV

Turning to `C[C@@H](OC(=O)Nc1c(C#Cc2ccc3cc(C4(C(=O)O)CC4)ccc3c2)cnn1C)c1ccccc1` [IT014], the EC50 in assay [1] is 50 to 500 nM; in assay [2], less than 50 nM. Also, the IC50 in assay [3] was less than 50 nM.
For `C[C@@H](OC(=O)Nc1c(C#Cc2ccc3cc(C4(C(=O)O)CC4)ccc3c2)nnn1C)c1ccccc1` [IT064], the figures for the EC50 in assay [1] and in assay [2] were 50 to 500 nM and less than 50 nM, respectively. Further, the IC50 in assay [3] was less than 50 nM.
As to `CCOC(=O)N1CCn2c(nc(-c3ccc(-c4ccc(C5(C(=O)O)CC5)cc4)cc3)c2NC(=O)O[C@H](C)c2ccccc2)C1` [IT023], the EC50 in assay [1] and in assay [2] was more than 500 nM each time. In assay [3], the IC50 was more than 500 nM.
Turning to `C[C@@H](OC(=O)Nc1c(-c2ccc(-c3cc4sc(C5(C(=O)O)CC5)cc4s3)cc2)nnn1C)c1ccccc1` [IT050], the EC50 was 50 to 500 nM in assay [1] and less than 50 nM in assay [2]. In addition, the IC50 in assay [3] was 50 to 500 nM.
As for `C[C@@H](OC(=O)Nc1c(-c2ccc(-c3cc4sc(C5(C(=O)O)CC5)cc4s3)cc2)cnn1C)c1ccccc1` [IT056], the EC50 in assay [1] is 50 to 500 nM; in assay [2] it was less than 50 nM. The IC50 in assay [3] lay in the range of 50 to 500 nM.
As to `CNC(=O)N1CCn2c(nc(-c3ccc(-c4ccc(C5(C(=O)O)CC5)cc4)cc3)c2NC(=O)O[C@H](C)c2ccccc2)C1` [IT022], the EC50 in assay [1] and in assay [2] was more than 500 nM throughout. For the same compound, the IC50 in assay [3] is more than 500 nM.
For the compound `C[C@@H](OC(=O)Nc1c(-c2ccc(-c3ccc(C4(C(=O)O)CC4)cc3)cc2)sc2ncccc12)c1ccccc1` [IT031], the EC50 in assay [1] was 50 to 500 nM; in assay [2] it was less than 50 nM. For the same compound, the IC50 in assay [3] was 50 to 500 nM.
On to `C[C@@H](OC(=O)Nc1c(-c2ccc(-c3ccc(C4(C(=O)O)CC4)cc3)cc2)nc2cnccn12)c1ccccc1` [IT032], for which the figures for the EC50 in assay [1] and in assay [2] were 50 to 500 nM and less than 50 nM, respectively. In addition, in assay [3], the IC50 lay in the range of 50 to 500 nM.
As for `CCn1ncc(C#Cc2ccc3cc(C4(C(=O)O)CC4)ccc3c2)c1NC(=O)O[C@H](C)c1ccccc1` [IT016], the values for the EC50 in assay [1] and in assay [2] were 50 to 500 nM and less than 50 nM, respectively. Also, the IC50 in assay [3] is less than 50 nM.
For the compound `C[C@@H](OC(=O)Nc1c(C#Cc2ccc3cc(C4(C(=O)O)CC4)ccc3c2)cnn1C1CC1)c1ccccc1` [IT015], the EC50 in assay [1] is 50 to 500 nM; in assay [2] it was less than 50 nM. In assay [3], the IC50 was in the range of 50 to 500 nM.
On to `Cc1nsc(-c2ccc(-c3cc4sc(C5(C(=O)O)CC5)cc4s3)cc2)c1NC(=O)O[C@H](C)c1ccccc1` [IT046], for which the EC50 in assay [1] was 50 to 500 nM; in assay [2], less than 50 nM. Also, the IC50 in assay [3] is more than 500 nM.
`Cc1noc(C#Cc2ccc3cc(C4(CC(=O)O)CC4)ccc3c2)c1NC(=O)O[C@H](C)c1ccccc1` [IT003]: the EC50 in assay [1] was 50 to 500 nM; in assay [2], less than 50 nM. In assay [3], the IC50 is less than 50 nM.
On to `Cc1noc(-c2ccc(-c3ccc4c(C(=O)O)c[nH]c4c3)cc2)c1NC(=O)O[C@H](C)c1ccccc1` [IT009], for which the EC50 in assay [1] and in assay [2] was more than 500 nM in each case. Further, the IC50 in assay [3] is more than 500 nM.
Turning to `Cc1nnn(-c2cc(F)c(-c3cc4sc(C5(C(=O)O)CC5)cc4s3)cc2F)c1NC(=O)O[C@H](C)c1ccccc1` [IT067], the EC50 in assay [1] was more than 500 nM; in assay [2] it was 50 to 500 nM. Further, in assay [3], the IC50 is 50 to 500 nM.
Regarding `C[C@@H](OC(=O)Nc1c(C#Cc2cc3sc(C4(C(=O)O)CC4)cc3s2)cnn1C)c1ccccc1` [IT017], the EC50 in assay [1] and in assay [2] was less than 50 nM each time. Besides, in assay [3], the IC50 was less than 50 nM.
As for `C[C@@H](OC(=O)Nc1c(-c2ccc(-c3ccc(C4(C(=O)O)CCOCC4)cc3)cc2)ncn1C)c1ccccc1` [IT027], the EC50 in assay [1] was more than 500 nM; in assay [2], 50 to 500 nM. The IC50 in assay [3] is 50 to 500 nM.
For the compound `Cc1noc(-c2cc(F)c(-c3ccc(C4(C(=O)O)CCOCC4)cc3)cc2F)c1NC(=O)O[C@H](C)c1ccccc1` [IT030], the EC50 in assay [1] and in assay [2] was more than 500 nM throughout. In addition, in assay [3], the IC50 was more than 500 nM.
Regarding `Cc1noc(-c2ccc(-c3ccc(C4(CC(=O)O)CC4)cc3)cc2)c1NC(=O)O[C@H](C)c1ccccc1` [IT004], the EC50 in assay [1] and in assay [2] was less than 50 nM in each case. In addition, the IC50 in assay [3] was less than 50 nM.
For `C[C@@H](OC(=O)Nc1c(-c2ccc(-c3ccc(C4(C(=O)O)CC4)cc3)cc2)nn2ncccc12)c1ccccc1` [IT033], the EC50 in assay [1] and in assay [2] was less than 50 nM throughout. The IC50 in assay [3] is 50 to 500 nM.
`C[C@@H](OC(=O)Nc1c(C#Cc2ccc3cc(C4(C(=O)O)CC4)ccc3c2)sc2ncccc12)c1ccccc1` [IT035]: the EC50 was 50 to 500 nM in assay [1] and less than 50 nM in assay [2]. The IC50 in assay [3] was more than 500 nM.
In the same order, the values of `Cc1nnn(-c2ccc(-c3cc4sc(C5(C(=O)O)CC5)cc4s3)cc2)c1NC(=O)O[C@H](C)c1ccccc1` [IT051] are 50 to 500 nM, 50 to 500 nM and 50 to 500 nM.
In the same order, the values of `CCn1ncc(C#Cc2cc3sc(C4(C(=O)O)CC4)cc3s2)c1NC(=O)O[C@H](C)c1ccccc1` [IT070] are less than 50 nM, less than 50 nM and less than 50 nM.
With `Cc1nsc(-c2ccc(C34CCC(CC(=O)O)(CC3)CC4)cc2)c1NC(=O)O[C@H](C)c1ccccc1` [IT026], the EC50 in assay [1] and in assay [2] was more than 500 nM each time. The IC50 in assay [3] is more than 500 nM.
In the case of `Cc1noc(C#Cc2cc3sc(C4(C(=O)O)CC4)cc3s2)c1NC(=O)OCc1ccccc1` [IT048], the figures for the EC50 in assay [1] and in assay [2] were 50 to 500 nM and less than 50 nM, respectively. For the same compound, the IC50 in assay [3] is less than 50 nM.
Consider `C[C@@H](OC(=O)Nc1c(C#Cc2cc3sc(C4(C(=O)O)CC4)cc3s2)nn2ccccc12)c1ccccc1` [IT073], for which the EC50 in assay [1] and in assay [2] was 50 to 500 nM throughout. Besides, the IC50 in assay [3] was less than 50 nM.
On to `Cc1noc(-c2ccc(-c3nc4ccc(C(=O)O)cc4s3)cc2)c1NC(=O)O[C@H](C)c1ccccc1` [IT010], for which the EC50 in assay [1] and in assay [2] was more than 500 nM in each case. The IC50 in assay [3] was more than 500 nM.
In the case of `C[C@@H](OC(=O)Nc1c(-c2ccc(-c3ccc(C4(C(=O)O)CC4)cc3)cc2)nc2n1CCN(S(C)(=O)=O)C2)c1ccccc1` [IT021], the EC50 in assay [1] and in assay [2] was more than 500 nM in each case. Also, the IC50 in assay [3] was more than 500 nM.
Take `Cc1nsc(-c2ccc3cc(-c4ccc(C(=O)O)cc4)ccc3c2)c1NC(=O)O[C@H](C)c1ccccc1` [IT040]: the EC50 in assay [1] and in assay [2] was more than 500 nM in each case. In assay [3], the IC50 was more than 500 nM.
Turning to `C[C@@H](OC(=O)Nc1c(-c2cc(F)c(-c3ccc(C4(C(=O)O)CC4)cc3)cc2F)nn2ncccc12)c1ccccc1` [IT061], the EC50 is 50 to 500 nM in assay [1] and less than 50 nM in assay [2]. In addition, in assay [3], the IC50 was less than 50 nM.
